Assays:
[1] = molecular target: Cytoplasmic tyrosine-protein kinase BMX (Homo sapiens) (UniProt P51813); conditions: Compound concentration 1000.0 nM
[2] = molecular target: Serine/threonine-protein kinase Nek6 (Homo sapiens) (UniProt Q9HC98); conditions: Compound concentration 1000.0 nM
[3] = molecular target: Serine/threonine-protein kinase VRK2 (Homo sapiens) (UniProt Q86Y07); conditions: Compound concentration 1000.0 nM
[4] = molecular target: Aurora kinase A (Homo sapiens) (UniProt O14965); conditions: Compound concentration 1000.0 nM
[5] = molecular target: Serine/threonine-protein kinase WNK4 (Homo sapiens) (UniProt Q96J92); conditions: Compound concentration 1000.0 nM
[6] = system: Tyrosine-protein kinase ABL1 (Homo sapiens), P00519 [F317I]; conditions: Compound concentration 1000.0 nM
[7] = molecular target: Ephrin type-B receptor 6 (Homo sapiens) (UniProt O15197); conditions: Compound concentration 1000.0 nM
[8] = molecular target: Cyclin-G-associated kinase (Homo sapiens) (UniProt O14976); conditions: Compound concentration 1000.0 nM
[9] = molecular target: Serine/threonine-protein kinase PAK 2 (Homo sapiens) (UniProt Q13177); conditions: Compound concentration 1000.0 nM
[10] = molecular target: Calcium/calmodulin-dependent protein kinase type 1D (Homo sapiens) (UniProt Q8IU85); conditions: Compound concentration 1000.0 nM
[11] = molecular target: Ephrin type-A receptor 7 (Homo sapiens) (UniProt Q15375); conditions: Compound concentration 1000.0 nM
[12] = molecular target: Tyrosine-protein kinase ITK/TSK (Homo sapiens) (UniProt Q08881); conditions: Compound concentration 1000.0 nM
[13] = molecular target: MAP/microtubule affinity-regulating kinase 3 (Homo sapiens) (UniProt P27448); conditions: Compound concentration 1000.0 nM
[14] = molecular target: G protein-coupled receptor kinase 4 (Homo sapiens) (UniProt P32298); conditions: Compound concentration 1000.0 nM
[15] = molecular target: Serine/threonine-protein kinase 4 (Homo sapiens) (UniProt Q13043); conditions: Compound concentration 1000.0 nM
[16] = molecular target: RAC-beta serine/threonine-protein kinase (Homo sapiens) (UniProt P31751); conditions: Compound concentration 1000.0 nM
[17] = molecular target: Insulin-like growth factor 1 receptor (Homo sapiens) (UniProt P08069); conditions: Compound concentration 1000.0 nM
[18] = molecular target: GABA-A receptor; anion channel (Rattus norvegicus) (UniProt O09028+P15431+P18506+P18508+P19969+P20236+P23574+P23576+P28471+P28473+P30191+P62813+P63079+P63138+Q91ZM7+Q9ES14); conditions: Compound concentration 10.0 uM
[19] = molecular target: Mitogen-activated protein kinase 6 (Homo sapiens) (UniProt Q16659); conditions: Compound concentration 1000.0 nM
[20] = molecular target: MAP kinase-activated protein kinase 2 (Homo sapiens) (UniProt P49137); conditions: Compound concentration 1000.0 nM
[21] = system: Mast/stem cell growth factor receptor Kit (Homo sapiens), P10721 [L576P]; conditions: Compound concentration 1000.0 nM
[22] = molecular target: Serine/threonine-protein kinase pim-1 (Homo sapiens) (UniProt P11309); conditions: Compound concentration 1000.0 nM
[23] = system: Phosphatidylinositol 4,5-bisphosphate 3-kinase catalytic subunit alpha isoform (Homo sapiens), P42336 [E542K]; conditions: Compound concentration 1000.0 nM
[24] = molecular target: 5-hydroxytryptamine receptor 7 (Homo sapiens) (UniProt P34969); conditions: Compound concentration 10.0 uM
[25] = molecular target: Phosphatidylinositol 5-phosphate 4-kinase type-2 gamma (Homo sapiens) (UniProt Q8TBX8); conditions: Compound concentration 1000.0 nM
[26] = system: Phosphatidylinositol 4,5-bisphosphate 3-kinase catalytic subunit alpha isoform (Homo sapiens), P42336 [I800L]; conditions: Compound concentration 1000.0 nM
[27] = molecular target: Tyrosine-protein kinase Fer (Homo sapiens) (UniProt P16591); conditions: Compound concentration 1000.0 nM
[28] = molecular target: Tyrosine-protein kinase TXK (Homo sapiens) (UniProt P42681); conditions: Compound concentration 1000.0 nM
[29] = molecular target: Ephrin type-B receptor 1 (Homo sapiens) (UniProt P54762); conditions: Compound concentration 1000.0 nM
[30] = molecular target: Serine/threonine-protein kinase MRCK gamma (Homo sapiens) (UniProt Q6DT37); conditions: Compound concentration 1000.0 nM
[31] = molecular target: Tyrosine-protein kinase Fes/Fps (Homo sapiens) (UniProt P07332); conditions: Compound concentration 1000.0 nM
[32] = molecular target: Serine/threonine-protein kinase WNK1 (Homo sapiens) (UniProt Q9H4A3); conditions: Compound concentration 1000.0 nM
[33] = molecular target: Serine/threonine-protein kinase Chk1 (Homo sapiens) (UniProt O14757); conditions: Compound concentration 1000.0 nM
[34] = molecular target: Serine/threonine-protein kinase D2 (Homo sapiens) (UniProt Q9BZL6); conditions: Compound concentration 1000.0 nM
[35] = molecular target: Serine/threonine-protein kinase B-raf (Homo sapiens) (UniProt P15056); conditions: Compound concentration 1000.0 nM
[36] = molecular target: Calcium/calmodulin-dependent protein kinase type II subunit delta (Homo sapiens) (UniProt Q13557); conditions: Compound concentration 1000.0 nM
[37] = molecular target: Serine/threonine-protein kinase SIK2 (Homo sapiens) (UniProt Q9H0K1); conditions: Compound concentration 1000.0 nM
[38] = molecular target: Myosin-IIIa (Homo sapiens) (UniProt Q8NEV4); conditions: Compound concentration 1000.0 nM
[39] = molecular target: Ribosomal protein S6 kinase beta-1 (Homo sapiens) (UniProt P23443); conditions: Compound concentration 1000.0 nM
[40] = molecular target: Cyclin-dependent kinase 16 (Homo sapiens) (UniProt Q00536); conditions: Compound concentration 1000.0 nM
[41] = molecular target: Mitogen-activated protein kinase kinase kinase 7 (Homo sapiens) (UniProt O43318); conditions: Compound concentration 1000.0 nM
[42] = system: Tyrosine-protein kinase ABL1 (Homo sapiens), P00519 [Q252H]; conditions: Compound concentration 1000.0 nM
[43] = molecular target: Focal adhesion kinase 1 (Homo sapiens) (UniProt Q05397); conditions: Compound concentration 1000.0 nM
[44] = molecular target: Tyrosine-protein kinase Srms (Homo sapiens) (UniProt Q9H3Y6); conditions: Compound concentration 1000.0 nM
Tyrosine-protein kinase Srms (Homo sapiens), sequence (Q9H3Y6 whole entry): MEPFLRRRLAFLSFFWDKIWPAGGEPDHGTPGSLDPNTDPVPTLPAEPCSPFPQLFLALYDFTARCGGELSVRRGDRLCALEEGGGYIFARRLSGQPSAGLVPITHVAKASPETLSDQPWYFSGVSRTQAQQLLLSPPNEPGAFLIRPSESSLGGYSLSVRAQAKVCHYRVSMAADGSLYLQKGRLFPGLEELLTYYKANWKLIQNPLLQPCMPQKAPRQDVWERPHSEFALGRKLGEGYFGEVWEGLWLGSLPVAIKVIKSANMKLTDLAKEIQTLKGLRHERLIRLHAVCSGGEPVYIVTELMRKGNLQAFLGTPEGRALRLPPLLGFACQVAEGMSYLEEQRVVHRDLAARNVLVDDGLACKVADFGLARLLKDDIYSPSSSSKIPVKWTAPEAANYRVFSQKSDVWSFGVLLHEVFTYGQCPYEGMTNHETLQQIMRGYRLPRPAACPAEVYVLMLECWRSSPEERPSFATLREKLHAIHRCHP

Tyrosine-protein kinase Fer (Homo sapiens), sequence (P16591 whole entry, looked up): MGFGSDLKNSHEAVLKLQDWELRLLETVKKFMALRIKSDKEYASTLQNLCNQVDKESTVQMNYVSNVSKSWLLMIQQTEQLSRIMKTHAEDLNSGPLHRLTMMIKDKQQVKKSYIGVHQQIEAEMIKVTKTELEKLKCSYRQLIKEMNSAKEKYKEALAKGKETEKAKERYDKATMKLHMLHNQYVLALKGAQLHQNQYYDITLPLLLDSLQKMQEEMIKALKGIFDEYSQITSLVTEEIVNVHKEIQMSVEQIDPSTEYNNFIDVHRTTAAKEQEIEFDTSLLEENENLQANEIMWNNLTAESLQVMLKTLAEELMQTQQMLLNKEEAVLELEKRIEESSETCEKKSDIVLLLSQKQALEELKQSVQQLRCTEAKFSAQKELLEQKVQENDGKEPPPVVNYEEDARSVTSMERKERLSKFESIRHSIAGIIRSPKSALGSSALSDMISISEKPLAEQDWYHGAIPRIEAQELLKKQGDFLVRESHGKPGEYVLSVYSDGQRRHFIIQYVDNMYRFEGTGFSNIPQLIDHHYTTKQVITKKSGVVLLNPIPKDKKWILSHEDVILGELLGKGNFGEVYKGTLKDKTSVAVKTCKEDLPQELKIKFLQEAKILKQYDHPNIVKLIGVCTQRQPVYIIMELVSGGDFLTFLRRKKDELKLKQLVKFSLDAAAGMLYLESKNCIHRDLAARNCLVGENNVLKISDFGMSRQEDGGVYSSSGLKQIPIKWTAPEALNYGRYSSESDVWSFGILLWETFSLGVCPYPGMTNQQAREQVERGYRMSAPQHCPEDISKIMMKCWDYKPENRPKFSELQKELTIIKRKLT
Insulin-like growth factor 1 receptor (Homo sapiens), sequence (P08069 31-736 limits assumed): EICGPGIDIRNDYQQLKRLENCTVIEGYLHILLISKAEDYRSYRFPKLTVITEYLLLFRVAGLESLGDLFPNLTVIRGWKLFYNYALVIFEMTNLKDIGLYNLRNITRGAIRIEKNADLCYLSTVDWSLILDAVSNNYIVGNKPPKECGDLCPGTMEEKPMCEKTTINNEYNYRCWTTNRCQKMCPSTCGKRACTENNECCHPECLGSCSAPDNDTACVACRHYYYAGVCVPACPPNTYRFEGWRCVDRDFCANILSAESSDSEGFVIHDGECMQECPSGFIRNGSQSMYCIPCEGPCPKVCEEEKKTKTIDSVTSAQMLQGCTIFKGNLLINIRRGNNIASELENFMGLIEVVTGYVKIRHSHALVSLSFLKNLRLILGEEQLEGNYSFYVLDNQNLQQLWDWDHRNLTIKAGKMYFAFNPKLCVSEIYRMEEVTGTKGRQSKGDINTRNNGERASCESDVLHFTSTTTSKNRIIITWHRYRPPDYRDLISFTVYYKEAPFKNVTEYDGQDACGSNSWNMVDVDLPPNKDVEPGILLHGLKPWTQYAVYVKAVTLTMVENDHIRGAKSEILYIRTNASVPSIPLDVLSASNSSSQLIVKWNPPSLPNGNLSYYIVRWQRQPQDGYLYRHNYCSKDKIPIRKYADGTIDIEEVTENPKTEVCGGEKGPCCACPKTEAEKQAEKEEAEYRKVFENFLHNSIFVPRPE
Insulin-like growth factor 1 receptor (Homo sapiens), sequence (P08069 741-1367 limits assumed): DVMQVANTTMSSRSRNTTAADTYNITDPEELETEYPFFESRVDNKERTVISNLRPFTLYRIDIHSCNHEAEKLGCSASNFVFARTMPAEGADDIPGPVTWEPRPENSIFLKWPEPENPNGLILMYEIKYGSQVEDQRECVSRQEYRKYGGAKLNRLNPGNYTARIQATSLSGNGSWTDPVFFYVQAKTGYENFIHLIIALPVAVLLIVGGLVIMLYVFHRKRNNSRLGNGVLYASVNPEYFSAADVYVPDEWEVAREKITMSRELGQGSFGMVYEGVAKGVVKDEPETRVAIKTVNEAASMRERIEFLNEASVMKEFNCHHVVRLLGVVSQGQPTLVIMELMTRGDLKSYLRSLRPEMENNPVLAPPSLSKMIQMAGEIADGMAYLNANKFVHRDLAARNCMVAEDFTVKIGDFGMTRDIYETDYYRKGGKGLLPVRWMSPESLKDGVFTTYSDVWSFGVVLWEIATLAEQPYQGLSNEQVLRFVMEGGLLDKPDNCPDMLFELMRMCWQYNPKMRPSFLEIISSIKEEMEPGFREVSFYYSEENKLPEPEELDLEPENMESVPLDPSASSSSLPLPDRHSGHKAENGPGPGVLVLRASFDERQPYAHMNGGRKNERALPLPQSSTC
Ephrin type-B receptor 1 (Homo sapiens), sequence (P54762 whole entry): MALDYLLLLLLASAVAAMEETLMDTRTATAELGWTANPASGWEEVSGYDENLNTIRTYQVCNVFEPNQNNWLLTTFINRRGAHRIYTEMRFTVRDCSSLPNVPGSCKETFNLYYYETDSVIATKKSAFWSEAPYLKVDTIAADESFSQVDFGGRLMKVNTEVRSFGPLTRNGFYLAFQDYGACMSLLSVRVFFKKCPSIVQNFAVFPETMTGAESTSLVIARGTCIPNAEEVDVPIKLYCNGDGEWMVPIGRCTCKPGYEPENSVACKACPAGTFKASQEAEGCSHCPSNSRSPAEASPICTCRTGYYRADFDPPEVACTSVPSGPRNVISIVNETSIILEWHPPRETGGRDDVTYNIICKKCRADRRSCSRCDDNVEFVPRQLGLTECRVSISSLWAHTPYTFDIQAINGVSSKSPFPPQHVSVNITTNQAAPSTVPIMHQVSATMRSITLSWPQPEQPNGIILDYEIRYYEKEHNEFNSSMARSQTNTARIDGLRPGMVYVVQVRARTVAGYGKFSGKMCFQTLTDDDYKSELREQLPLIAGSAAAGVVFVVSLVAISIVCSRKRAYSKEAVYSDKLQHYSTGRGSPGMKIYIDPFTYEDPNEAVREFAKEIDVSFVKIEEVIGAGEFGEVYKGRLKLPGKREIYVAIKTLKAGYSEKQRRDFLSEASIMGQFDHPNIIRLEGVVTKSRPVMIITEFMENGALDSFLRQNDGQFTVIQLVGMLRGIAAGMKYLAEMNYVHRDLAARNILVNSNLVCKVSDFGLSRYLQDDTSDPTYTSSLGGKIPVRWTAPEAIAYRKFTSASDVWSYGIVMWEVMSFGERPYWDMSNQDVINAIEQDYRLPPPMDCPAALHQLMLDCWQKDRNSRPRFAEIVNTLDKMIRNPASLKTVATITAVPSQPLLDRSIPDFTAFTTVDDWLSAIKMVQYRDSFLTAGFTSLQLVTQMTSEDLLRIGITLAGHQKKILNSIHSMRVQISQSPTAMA
Serine/threonine-protein kinase Chk1 (Homo sapiens), sequence (O14757 whole entry): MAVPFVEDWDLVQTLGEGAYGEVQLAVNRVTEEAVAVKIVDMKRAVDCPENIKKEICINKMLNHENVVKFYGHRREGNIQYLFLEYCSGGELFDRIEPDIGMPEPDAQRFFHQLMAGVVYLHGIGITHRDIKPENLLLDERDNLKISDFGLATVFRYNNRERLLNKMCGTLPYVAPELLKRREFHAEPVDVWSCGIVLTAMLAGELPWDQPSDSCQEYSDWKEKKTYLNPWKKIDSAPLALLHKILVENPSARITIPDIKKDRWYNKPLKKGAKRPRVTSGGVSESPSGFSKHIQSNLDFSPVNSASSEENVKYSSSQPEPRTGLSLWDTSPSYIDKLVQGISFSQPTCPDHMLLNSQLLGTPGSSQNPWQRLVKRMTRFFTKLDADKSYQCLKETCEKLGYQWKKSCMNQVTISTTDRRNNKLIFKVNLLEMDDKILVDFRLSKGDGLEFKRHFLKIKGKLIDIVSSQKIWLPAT
Calcium/calmodulin-dependent protein kinase type II subunit delta (Homo sapiens), sequence (Q13557 whole entry): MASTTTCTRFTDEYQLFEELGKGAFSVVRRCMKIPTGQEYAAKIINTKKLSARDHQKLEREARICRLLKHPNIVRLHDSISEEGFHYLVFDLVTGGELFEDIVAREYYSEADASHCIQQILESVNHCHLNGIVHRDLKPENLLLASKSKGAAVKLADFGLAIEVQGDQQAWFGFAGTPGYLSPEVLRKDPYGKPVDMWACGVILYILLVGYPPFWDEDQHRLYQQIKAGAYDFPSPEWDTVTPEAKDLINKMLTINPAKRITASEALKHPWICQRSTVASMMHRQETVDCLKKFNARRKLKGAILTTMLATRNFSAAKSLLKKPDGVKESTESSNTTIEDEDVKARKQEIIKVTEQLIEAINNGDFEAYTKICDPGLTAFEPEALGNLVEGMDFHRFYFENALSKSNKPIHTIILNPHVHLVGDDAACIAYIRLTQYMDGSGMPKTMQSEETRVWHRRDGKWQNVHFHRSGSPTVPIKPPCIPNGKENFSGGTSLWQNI
Serine/threonine-protein kinase Nek6 (Homo sapiens), sequence (Q9HC98 whole entry): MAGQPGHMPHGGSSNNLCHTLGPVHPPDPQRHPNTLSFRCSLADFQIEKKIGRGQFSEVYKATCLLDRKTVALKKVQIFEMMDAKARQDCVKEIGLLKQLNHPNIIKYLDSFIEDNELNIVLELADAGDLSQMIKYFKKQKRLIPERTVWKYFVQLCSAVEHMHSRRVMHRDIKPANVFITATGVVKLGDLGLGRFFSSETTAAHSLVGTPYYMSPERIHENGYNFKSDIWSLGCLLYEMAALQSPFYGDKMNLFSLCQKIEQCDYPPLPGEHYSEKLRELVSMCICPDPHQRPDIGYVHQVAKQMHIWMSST

N#Cc1ccc(Nc2ccc3[nH]c(=O)[nH]c3c2)c(Cl)c1
inactive: residual activity [1] 100% | residual activity [2] 100% | residual activity [3] 100% | residual activity [4] 87% | residual activity [5] 100% | residual activity [6] 81% | residual activity [7] 100% | residual activity [8] 100% | residual activity [9] 79% | residual activity [10] 92% | residual activity [11] 100% | residual activity [12] 100% | residual activity [13] 100% | residual activity [14] 100% | residual activity [15] 100% | residual activity [16] 89% | residual activity [17] 99% | inhibition [18] 10.2% | residual activity [19] 100% | residual activity [20] 100% | residual activity [21] 89% | residual activity [22] 90% | residual activity [23] 70% | inhibition [24] 8.12% | residual activity [25] 100% | residual activity [26] 77% | residual activity [27] 100% | residual activity [28] 87% | residual activity [29] 93% | residual activity [30] 100% | residual activity [31] 100% | residual activity [32] 100% | residual activity [33] 98% | residual activity [34] 100% | residual activity [35] 100% | residual activity [36] 100% | residual activity [37] 100% | residual activity [38] 97% | residual activity [39] 100% | residual activity [40] 100% | residual activity [41] 90% | residual activity [42] 100% | residual activity [43] 100% | residual activity [44] 100%

O=C1CCc2cc(Nc3cc(OC4CCOCC4)c([N+](=O)[O-])cc3Cl)ccc2N1
inactive: residual activity [1] 69% | residual activity [2] 96% | residual activity [3] 100% | residual activity [4] 87% | residual activity [5] 100% | residual activity [6] 92% | residual activity [7] 100% | residual activity [8] 100% | residual activity [9] 96% | residual activity [10] 100% | residual activity [11] 75% | residual activity [12] 95% | residual activity [13] 100% | residual activity [14] 100% | residual activity [15] 100% | residual activity [16] 82% | residual activity [17] 86% | inhibition [18] 29.2% | residual activity [19] 100% | residual activity [20] 99% | residual activity [21] 100% | residual activity [22] 96% | residual activity [23] 71% | inhibition [24] 12.3% | residual activity [25] 100% | residual activity [26] 63% | residual activity [27] 100% | residual activity [28] 79% | residual activity [29] 83% | residual activity [30] 99% | residual activity [31] 100% | residual activity [32] 86% | residual activity [33] 95% | residual activity [34] 85% | residual activity [35] 100% | residual activity [36] 100% | residual activity [37] 100% | residual activity [38] 99% | residual activity [39] 100% | residual activity [40] 88% | residual activity [41] 95% | residual activity [42] 100% | residual activity [43] 100% | residual activity [44] 82%
